Results reported in paper PMC3271735 (Journal of the American Chemical Society, 2012).

Tests used:
Assay type in all cases: biochemical
Conditions in all cases: 100 μM inhibitor
Sirt2 = molecular target: T1, Sirt2 (Homo sapiens, UniProt Q8IXJ6); experiment: Sirt2 inhibition assay
T1 sequence (Q8IXJ6 1-389): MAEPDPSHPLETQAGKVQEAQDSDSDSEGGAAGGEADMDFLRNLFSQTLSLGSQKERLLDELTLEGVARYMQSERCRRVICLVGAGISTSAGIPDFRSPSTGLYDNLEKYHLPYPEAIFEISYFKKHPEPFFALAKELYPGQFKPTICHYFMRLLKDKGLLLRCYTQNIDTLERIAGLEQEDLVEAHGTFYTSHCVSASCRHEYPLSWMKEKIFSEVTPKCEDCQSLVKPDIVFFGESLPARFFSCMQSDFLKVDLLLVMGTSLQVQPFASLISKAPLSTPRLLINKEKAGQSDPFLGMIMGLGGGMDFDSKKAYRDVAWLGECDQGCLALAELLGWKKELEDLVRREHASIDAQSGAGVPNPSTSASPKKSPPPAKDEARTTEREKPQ

Sirt3 = molecular target: T2, Sirt3 (Homo sapiens, UniProt Q9NTG7); experiment: Sirt3 inhibition assay
T2 sequence (Q9NTG7 1-399): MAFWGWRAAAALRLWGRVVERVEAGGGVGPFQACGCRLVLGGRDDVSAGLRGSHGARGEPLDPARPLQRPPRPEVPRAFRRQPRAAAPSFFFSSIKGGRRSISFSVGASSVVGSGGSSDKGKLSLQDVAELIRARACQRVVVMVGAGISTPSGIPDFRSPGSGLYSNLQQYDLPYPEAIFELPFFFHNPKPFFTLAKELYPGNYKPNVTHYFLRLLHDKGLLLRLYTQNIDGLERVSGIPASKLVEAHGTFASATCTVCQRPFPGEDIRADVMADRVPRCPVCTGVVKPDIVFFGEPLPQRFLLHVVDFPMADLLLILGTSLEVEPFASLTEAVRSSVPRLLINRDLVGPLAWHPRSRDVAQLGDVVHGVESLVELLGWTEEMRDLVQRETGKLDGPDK

Sirt1 = molecular target: T3, Sirt1 (Homo sapiens, UniProt Q96EB6); experiment: Sirt1 inhibition assay
T3 sequence (Q96EB6 1-747): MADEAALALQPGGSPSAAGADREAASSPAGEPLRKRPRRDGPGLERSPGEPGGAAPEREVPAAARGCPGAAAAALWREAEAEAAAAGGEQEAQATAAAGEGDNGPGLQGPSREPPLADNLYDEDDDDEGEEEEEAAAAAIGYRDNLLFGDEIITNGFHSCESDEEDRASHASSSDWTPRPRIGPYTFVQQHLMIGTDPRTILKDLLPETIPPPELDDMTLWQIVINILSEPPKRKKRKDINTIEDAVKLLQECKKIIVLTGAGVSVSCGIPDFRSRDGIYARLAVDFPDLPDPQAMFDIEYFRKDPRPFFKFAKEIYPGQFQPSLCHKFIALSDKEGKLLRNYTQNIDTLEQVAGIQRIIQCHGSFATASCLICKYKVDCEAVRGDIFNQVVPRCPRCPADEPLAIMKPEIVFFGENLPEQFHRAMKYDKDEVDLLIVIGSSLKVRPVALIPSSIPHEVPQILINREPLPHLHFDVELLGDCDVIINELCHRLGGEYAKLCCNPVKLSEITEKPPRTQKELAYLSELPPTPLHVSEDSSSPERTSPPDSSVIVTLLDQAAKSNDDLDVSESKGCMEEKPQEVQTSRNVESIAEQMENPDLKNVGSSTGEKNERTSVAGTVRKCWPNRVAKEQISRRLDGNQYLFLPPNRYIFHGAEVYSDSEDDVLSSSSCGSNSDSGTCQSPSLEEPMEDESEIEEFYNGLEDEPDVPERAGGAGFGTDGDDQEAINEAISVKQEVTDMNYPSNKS

C[C@H](NC(=O)[C@H](CCCCN)NC(=O)CNC(=O)CNC(=O)[C@@H](NC(=O)[C@H](CO)NC(=O)[C@H](CCCCNC(=S)CCC(=O)O)NC(=O)[C@H](CCCNC(=N)N)NC(=O)[C@H](C)NC(=O)[C@@H](NC(=O)[C@H](CCC(N)=O)NC(=O)[C@@H](N)CCCCN)[C@@H](C)O)[C@@H](C)O)C(=O)O [H3K9TSu, KQTAR(TSuK)STGGKA]
does not inhibit: inhibition of Sirt2 at 100 μM (Sirt2) | inhibition of Sirt3 at 100 μM (Sirt3) | inhibition of Sirt1 at 100 μM (Sirt1)
